Where a name gives a salt, the structure may show the parent alone.

Data set [1] in a line: In vivo pharmacokinetic study in beagle dogs. The note with it: male, dog, plasma, po, gavage, 10 mg/kg. How it is done: With beagle dogs as test animals, the drug concentration in the plasma of beagle dogs at different time points after oral administration of the compound of the present disclosure was determined by using LC/MS/MS. The pharmacokinetic behavior of the compound of the present disclosure in beagle dogs was studied to evaluate its pharmacokinetic characteristics.
Experimental animals: 2 healthy male beagle dogs aged 8 to 36 months per group
Drug preparation: A certain amount of drug was weighed and prepared into a 2 mg/mL colorless clear solution with normal saline.
Administration: Beagle dogs were fasted overnight and administered with the drug by gavage. The dosage of reference 1 and the compound of Example 6 was both 10 mg/kg.
Procedure: Beagle dogs were administered by gavage with the compound of the present disclosure. Approximately 0.6 mL of blood was collected by peripheral venipuncture at 0.25, 0.5, 1, 2, 4, 6, 8, and 24 h after administration. The blood was placed in a tube containing EDTA-K2 and centrifuged at 2000 rpm for 10 min at approximately 4°C to separate the plasma, which was then stored at -75°C.
Determination of the content of the test compound in beagle dog plasma at different blood collection time points: 33 µL of beagle dog plasma (30 µL plasma and 3 µL blank) collected at each time point after administration was added to 18 µL of 6% perchloric acid solution, vortexed for 30 s, and centrifuged at 3900 rpm at 4°C for 15 min. Then, 200 µL of alkaline (pH 10-11 as adjusted with ammonia water) acetonitrile solution containing internal standard dexamethasone was added to precipitate the protein. The mixture was vortexed for 30 s and centrifuged at 3900 rpm at 4°C for 15 min. The supernatant of the plasma sample was taken, diluted 3-fold with water, and 8 µL was taken for LC/MS/MS analysis.
After the blood drug concentration was determined by LC/MS/MS analysis, the pharmacokinetic parameters were calculated using WinNonlin 6.1 software and the non-compartmental model method. Table 1 Pharmacokinetic parameters of the compounds of the present disclosure in beagle dogs

A short description of data set [2]: Long-term accelerated stability test (Test Example 4), sealed in aluminum foil bag (nitrogen-filled). In kind it is physicochemical.
A short description of data set [3]: Long-term accelerated stability test (Test Example 3), sealed in aluminum foil bags. In kind it is physicochemical. To be noted: for physicochemical stability: 25°C/60%RH and 40°C/75%RH for 6 months.
Data set [4] can be described thus: DVS hygroscopicity test (dynamic moisture sorption). In kind it is physicochemical. To be noted: at 80% RH; listed as hydrochloride crystal form a. On the procedure: DVS stands for dynamic moisture sorption: using the Surface Measurement Systems instrument, humidity started at 50% and the humidity range investigated was 0%-95% with a step of 10%. The judgment standard is that the mass change of each gradient dM/dT is ≤ 0.002%, TMAX is 360 min, and there are two cycles.

A word on the AUC: it is the area under the concentration-time curve, a measure of exposure. Regarding `Cl.Cl.Cl.Cl.O=C(O)[C@@H](Cc1cccc(CN(CCOc2cccc(C[C@H](C(=O)O)[C@H]3CCNC3)c2)Cc2cccc(C[C@H](C(=O)O)[C@H]3CCNC3)c2)c1)[C@H]1CCNC1` [Compound A hydrochloride, (2S)-3-(3-{[(2-{3-[(2S)-2-carboxyl-2-[(3R)-pyrrolidin-3-yl]ethyl]phenoxy}ethyl)({3-[(2S)-2-carboxyl-2-[(3R)-pyrrolidin-3-yl]ethyl]phenyl}methyl)amino]methyl}phenyl)-2-[(3R)-pyrrolidin-3-yl]propionic acid tetrahydrochloride], in data set [1] (read-out: Area under curve AUC), the AUC amounted to 28600 ng·h/mL. Also, the half-life in data set [1] (read-out: Half life T1/2 (converted)) was 18.3 h. In addition, the Cmax in data set [1] (read-out: Maximum blood concentration Cmax) is 2470 ng/mL.
For the compound `O=C(O)[C@@H](Cc1cccc(CN(CCOc2cccc(C[C@H](C(=O)O)[C@H]3CCNC3)c2)Cc2cccc(C[C@H](C(=O)O)[C@H]3CCNC3)c2)c1)[C@H]1CCNC1` [free crystal form C, (2S)-3-(3-{[(2-{3-[(2S)-2-carboxyl-2-[(3R)-pyrrolidin-3-yl]ethyl]phenoxy}ethyl)({3-[(2S)-2-carboxyl-2-[(3R)-pyrrolidin-3-yl]ethyl]phenyl}methyl)amino]methyl}phenyl)-2-[(3R)-pyrrolidin-3-yl]propionic acid], the Crystal form result in data set [2] (0 day) is recorded as “Crystal form C”; in data set [2] (25°C-60%RH, 1 month), “Unchanged”; in data set [2] (25°C-60%RH, 3 months), “Unchanged”; in data set [2] (25°C-60%RH, 6 months) it was “Unchanged”; in data set [2] (25°C-60%RH, 7 days), “Unchanged”; in data set [2] (25°C-60%RH, 14 days), “Unchanged”. Also, the Crystal form entry is reported as “Unchanged” in data set [2] (40°C-75%RH, 1 month); “Unchanged” in data set [2] (40°C-75%RH, 3 months); “Unchanged” in data set [2] (40°C-75%RH, 6 months); “Unchanged” in data set [2] (40°C-75%RH, 7 days); “Unchanged” in data set [2] (40°C-75%RH, 14 days). For the same compound, the “Purity (%)” value in data set [2] (0 day) turned out to be 99.8%; in data set [2] (25°C-60%RH, 1 month), 99.8%; in data set [2] (25°C-60%RH, 3 months), 99.7%; in data set [2] (25°C-60%RH, 6 months), 99.7%; in data set [2] (25°C-60%RH, 7 days), 99.8%; in data set [2] (25°C-60%RH, 14 days) it was 99.8%. For the same compound, the “Purity (%)” value in data set [2] (40°C-75%RH, 1 month) came to 99.8%; in data set [2] (40°C-75%RH, 3 months) it was 99.3%; in data set [2] (40°C-75%RH, 6 months), 99.3%; in data set [2] (40°C-75%RH, 7 days), 99.8%; in data set [2] (40°C-75%RH, 14 days) it was 99.8%. Further, the physicochemical stability entry in data set [2] (25°C/60%RH and 40°C/75%RH for 6 months) is recorded as “good”.
On to `O=C(O)[C@@H](Cc1cccc(CN(CCOc2cccc(C[C@H](C(=O)O)[C@H]3CCNC3)c2)Cc2cccc(C[C@H](C(=O)O)[C@H]3CCNC3)c2)c1)[C@H]1CCNC1` [hydrochloride (1:1) amorphous form, (2S)-3-(3-{[(2-{3-[(2S)-2-carboxyl-2-[(3R)-pyrrolidin-3-yl]ethyl]phenoxy}ethyl)({3-[(2S)-2-carboxyl-2-[(3R)-pyrrolidin-3-yl]ethyl]phenyl}methyl)amino]methyl}phenyl)-2-[(3R)-pyrrolidin-3-yl]propionic acid], for which the Crystal form result in data set [3] (0 day) is “Amorphous form”; in data set [3] (25°C-60%RH, 1 month) it was “Crystal form a”; in data set [3] (25°C-60%RH, 2 months) it was “Crystal form a”; in data set [3] (25°C-60%RH, 3 months), “Crystal form a”; in data set [3] (25°C-60%RH, 7 days), “Unchanged”; in data set [3] (25°C-60%RH, 14 days), “Unchanged”. The Crystal form entry is given as “Crystal form a” in data set [3] (40°C-75%RH, 1 month); “Crystal form a” in data set [3] (40°C-75%RH, 2 months); “Crystal form a” in data set [3] (40°C-75%RH, 3 months); “Crystal form a” in data set [3] (40°C-75%RH, 7 days); “Crystal form a” in data set [3] (40°C-75%RH, 14 days). The “Purity (%)” value in data set [3] (0 day) is recorded as 98.8%; in data set [3] (25°C-60%RH, 1 month), 98.7%; in data set [3] (25°C-60%RH, 2 months), 98.6%; in data set [3] (25°C-60%RH, 3 months), 98.2%; in data set [3] (25°C-60%RH, 7 days), 98.8%; in data set [3] (25°C-60%RH, 14 days), 98.8%. The “Purity (%)” value in data set [3] (40°C-75%RH, 1 month) is reported as 97.6%; in data set [3] (40°C-75%RH, 2 months) it was 95.6%; in data set [3] (40°C-75%RH, 3 months) it was 95.3%; in data set [3] (40°C-75%RH, 7 days), 98.3%; in data set [3] (40°C-75%RH, 14 days), 98.1%. The physicochemical stability result in data set [3] is “slightly less stable”.
In the case of `O=C(O)[C@@H](Cc1cccc(CN(CCOc2cccc(C[C@H](C(=O)O)[C@H]3CCNC3)c2)Cc2cccc(C[C@H](C(=O)O)[C@H]3CCNC3)c2)c1)[C@H]1CCNC1` [hydrochloride (1:1) crystal form a, (2S)-3-(3-{[(2-{3-[(2S)-2-carboxyl-2-[(3R)-pyrrolidin-3-yl]ethyl]phenoxy}ethyl)({3-[(2S)-2-carboxyl-2-[(3R)-pyrrolidin-3-yl]ethyl]phenyl}methyl)amino]methyl}phenyl)-2-[(3R)-pyrrolidin-3-yl]propionic acid], the “DVS hygroscopicity weight gain” value in data set [4] is 30%. The Crystal form entry in data set [3] (0 day) is listed as “Hydrochloride crystal form a”; in data set [3] (25°C-60%RH, 1 month) it was “Unchanged”; in data set [3] (25°C-60%RH, 3 months), “Deliquescent”; in data set [3] (25°C-60%RH, 6 months), “Deliquescent”; in data set [3] (25°C-60%RH, 7 days), “Unchanged”; in data set [3] (25°C-60%RH, 14 days) it was “Unchanged”. Besides, the Crystal form result in data set [3] (40°C-75%RH, 1 month) is on record as “Deliquescent”; in data set [3] (40°C-75%RH, 3 months), “Deliquescent”; in data set [3] (40°C-75%RH, 6 months), “Deliquescent”; in data set [3] (40°C-75%RH, 7 days), “Unchanged”; in data set [3] (40°C-75%RH, 14 days), “Unchanged”. Further, the “Purity (%)” value in data set [3] (0 day) is listed as 99.9%; in data set [3] (25°C-60%RH, 1 month) it was 99.9%; in data set [3] (25°C-60%RH, 3 months), 99.7%; in data set [3] (25°C-60%RH, 6 months), 98.5%; in data set [3] (25°C-60%RH, 7 days) it was 99.9%; in data set [3] (25°C-60%RH, 14 days), 99.9%. Also, the “Purity (%)” value worked out at 97.7% in data set [3] (40°C-75%RH, 1 month); 95.2% in data set [3] (40°C-75%RH, 3 months); 94.8% in data set [3] (40°C-75%RH, 6 months); 99.8% in data set [3] (40°C-75%RH, 7 days); 98.8% in data set [3] (40°C-75%RH, 14 days). Moreover, the physicochemical stability entry in data set [3] is “slightly less stable”.
For the compound `Cl.Cl.Cl.Cl.O=C(O)[C@@H](Cc1cccc(CN(CCOc2cccc(C[C@H](C(=O)O)[C@H]3CCNC3)c2)Cc2cccc(C[C@H](C(=O)O)[C@H]3CCNC3)c2)c1)[C@H]1CCNC1` [hydrochloride (1:4) amorphous form, (2S)-3-(3-{[(2-{3-[(2S)-2-carboxyl-2-[(3R)-pyrrolidin-3-yl]ethyl]phenoxy}ethyl)({3-[(2S)-2-carboxyl-2-[(3R)-pyrrolidin-3-yl]ethyl]phenyl}methyl)amino]methyl}phenyl)-2-[(3R)-pyrrolidin-3-yl]propionic acid tetrahydrochloride], the Crystal form result in data set [3] (0 day) is “Amorphous form”; in data set [3] (25°C-60%RH, 1 month), “Unchanged”; in data set [3] (25°C-60%RH, 2 months), “Deliquescent”; in data set [3] (25°C-60%RH, 3 months), “Deliquescent”; in data set [3] (25°C-60%RH, 6 months), “Deliquescent”; in data set [3] (25°C-60%RH, 7 days), “Unchanged”. Also, the Crystal form entry in data set [3] (25°C-60%RH, 14 days) is “Unchanged”; in data set [3] (40°C-75%RH, 1 month), “Deliquescent”; in data set [3] (40°C-75%RH, 2 months), “Deliquescent”; in data set [3] (40°C-75%RH, 3 months), “Deliquescent”; in data set [3] (40°C-75%RH, 6 months), “Deliquescent”; in data set [3] (40°C-75%RH, 7 days), “Unchanged”. For the same compound, the Crystal form entry in data set [3] (40°C-75%RH, 14 days) is listed as “Unchanged”. Also, the “Purity (%)” value in data set [3] (0 day) was 99.8%; in data set [3] (25°C-60%RH, 1 month), 99.8%; in data set [3] (25°C-60%RH, 2 months), 99.8%; in data set [3] (25°C-60%RH, 3 months), 99.8%; in data set [3] (25°C-60%RH, 6 months) it was 99.8%; in data set [3] (25°C-60%RH, 7 days) it was 99.8%. The “Purity (%)” value is on record as 99.8% in data set [3] (25°C-60%RH, 14 days); 99.8% in data set [3] (40°C-75%RH, 1 month); 99.8% in data set [3] (40°C-75%RH, 2 months); 99.8% in data set [3] (40°C-75%RH, 3 months); 99.8% in data set [3] (40°C-75%RH, 6 months); 99.8% in data set [3] (40°C-75%RH, 7 days). Further, the “Purity (%)” value in data set [3] (40°C-75%RH, 14 days) turned out to be 99.8%. Also, the physicochemical stability result in data set [3] is reported as “slightly less stable”.
